Source: patent US20090291905A1, “FUNGAL PHYTOTOXIN FUSICOCCIN FOR THE TREATMENT AND DIAGNOSIS OF COAGULATION-CORRELATED PATHOLOGIES” (priority 2008, published 2009)
Square brackets hold non-standard residues; d marks the D form. Primed or numbered codes have the meaning given here. Ends that are not written are not given here. * marks the point of attachment. Myristoyl = CCCCCCCCCCCCCC(=O)*; pS′ = not defined here

Legend:
[1] = tested on: platelet adhesion to immobilized vWF; test: Platelet adhesion to immobilized vWF; assay type: cell-based, human; details: platelets pre-incubated with FC
Description: 90 μl platelet suspension was incubated with purified vWF immobilized onto polystyrene wells. After washings, adherent platelets were determined measuring the endogenous acid phosphatase activity. +FC, platelets previously treated with 40 μM FC; +ADP, incubation in the presence of 50 μM ADP.
Platelet adhesion to immobilized vWF was performed in polystyrene microtitre plate wells as described by Lu et al. (1994) with minor modifications. Briefly, plate wells were coated overnight at 4° C. with 100 μl 15 μg/ml purified vWF and 15 μg/ml BSA. After three washes with PBS unbound sites were saturated with 200 μl of 2 mg/ml BSA for 2 h at RT. After three washings with PBS, wells were incubated with 90 μl platelet suspension (2.0×10^8/ml) previously treated with 40 μM FC. Where indicated, wells were preloaded with 50 μM ADP. After 1 h incubation at RT, non-adherent platelets were removed by 7 washings with a buffer 10 mM Hepes containing 145 mM NaCl, 5 mM KCl, 1 mM MgCl2, 2 mM CaCl2, 10 mM glucose, 3.5 mg/ml BSA, pH 7.35. The number of vWF-bound platelet was calculated by measurement of endogenous acid phosphatase using 130 μl/well of developing buffer (10 mM p-nitrophenyl phosphate, 0.1% Triton X-100, 50 mM sodium citrate, pH 5.5). After 1 h at 37° C. incubation, the reaction was stopped by the addition of 10 μl of 1 M NaOH/well and the plates were read at 405 nm on an automated plate reader. […]

[2] = biological target: T1, 14-3-3 proteins / bL15Vp peptide (last 15 amino acids of the H+-ATPase) (Zea mays, UniProt P49106); test: Binding of 32P-labelled 14-3-3 (GF14-6) to resin-bound bL15Vp phosphopeptide; details: 10 μM FC; resin-bound radioactivity
T1 construct: GST (pGEX-2TK, with protein kinase A site at the junction, 32P-labelled) (N); made in house; host or cells: E. coli (14-3-3); peptide synthesized by Neosystem
T1 sequence (P49106 1-261): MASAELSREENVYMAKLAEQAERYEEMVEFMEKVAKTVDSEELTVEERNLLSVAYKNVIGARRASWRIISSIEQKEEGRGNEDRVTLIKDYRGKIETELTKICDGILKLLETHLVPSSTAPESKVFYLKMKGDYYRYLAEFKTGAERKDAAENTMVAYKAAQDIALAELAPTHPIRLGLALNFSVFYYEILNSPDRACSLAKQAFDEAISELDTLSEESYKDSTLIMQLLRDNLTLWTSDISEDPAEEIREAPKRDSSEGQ
Description: (§1) Peptides were immobilized onto streptavidin-agarose resin and incubated with ^32P-labelled 14-3-3 in the absence or in the presence of 10 μM FC. After washing, radioactivity associated with the resin was measured. Data are the mean of three independent experiments.
(§2) 0.5 nmol of biotinylated peptides were immobilized onto 40 μl of streptavidin-agarose resin (Sigma-Aldrich) and incubated in 50 μl of buffer H with 3 μg of ^32P-labelled GF14-6 (1.4 kBq/μg) for 60 min at room temperature in the absence or in the presence of 10 μM FC. Resin was then centrifuged at 2000×g for 5 min and washed three times with 1 ml of buffer H. Resin-bound radioactivity was measured in a liquid scintillation β-counter Packard Tri Carb 2100TR (Canberra, Australia).
(§3) A phosphorylated biotinyl-peptide (bD15Lp), reproducing the last 15 amino acid residues of GPIbα, and containing the 14-3-3 binding sequence, was used in interaction studies with 14-3-3 proteins to verify the ability of FC to stimulate the interaction. The unphosphorylated corresponding peptide ([…]) and peptides reproducing the last 15 amino acids of the H^+-ATPase in unphosphorylated (bL15V) and phosphorylated form (bL15Vp) were used as control.
(§4) The peptides were immobilized onto a streptavidin-agarose resin and incubated with ^32P-labelled 14-3-3 proteins.

[3] = tested on: platelet aggregation (PRP); test: Platelet aggregation in PRP (turbidometric aggregometer); assay type: cell-based, human; details: for Platelet agglutination/aggregation induced: different FC concentrations, ristocetin 1 mg/ml
Description: Aggregation was studied with PRP using a turbidometric aggregometer as described in the Materials and Methods. A: effect of different concentrations of FC and ristocetin 1.0 mg/ml. B: effect of 40 μM FC in the presence of the aggregation antagonist RGDS peptide. C: effect of 40 μM FC in the presence of the cell-permeable 14-3-3 competitor MPAC peptide.
Washed platelets were prepared from platelet-rich plasma (PRP) obtained from healthy donors who had not taken medication for at least 9 days before bleeding. Preparation of PRP was performed as described by Dai et al. (2005).
PRPs were preincubated at 37° C. with different FC concentrations and, when indicated 0.1 mM MPaC or 0.75 mM RGDS. Aggregation was measured using a turbidometric platelet aggregometer Chrono-log 560 CA (Chrono-log Corporation, Pa., USA). 500 μl PRP were placed in a cuvette at 37° C. under continuous stirring at 1000 rpm. Aggregation was expressed as percentage of change in light transmission, with the value for the blank sample (PPP, Platelet-Poor Plasma) set at 100% and 0% for PRP.
To determine whether the FC-promoted binding of platelets to vWF results in platelet aggregation, the effect of FC on platelet functionality was assayed using an optical aggregometer. […] To determine whether the FC effect involves 14-3-3 proteins, the MPAC peptide was tested in FC-induced platelet agglutination.

[4] = tested on: isolated human platelets; test: Binding of [3H]FC to isolated human platelets; details: 10 nM [3H]FC, displaced by 10 μM unlabelled FC; 1 h at 37° C.
Description: 30 μl of platelet suspension (2.0×10^8/ml) were incubated for 1 h at 37° C. with 5×10^5 dpm [^3H]FC in 100 μl PBS containing 5 mM MgCl2. Where indicated, 10 μM cold FC was added (+FC). Platelets were then sedimented by centrifugation and radioactivity measured by scintillation counting.
30 μl of platelet suspension (2.0×10^8/ml) were incubated for 1 h at 37° C. with 5×10^5 dpm [^3H]FC in 100 μl PBS containing 5 mM MgCl2. To calculate specific binding, control sample was incubated with 10 μM FC. Platelets were centrifuged at 2000 g for 4 min in a refrigerated microcentrifuge and extensively washed in PBS containing 5 mM MgCl2. 500 μl perchloric acid was then added and radioactivity was measured in a liquid scintillation β-counter.
In order to verify whether a FC binding activity is present in purified human platelets, a [^3H]FC analogue (Ballio et al., 1980) was utilised. 30 μl platelet suspension in PBS (2.0×10^8/ml) were incubated with 10 nM [^3H]FC, and after several washings, the platelet-associated radioactivity was measured. The specific [^3H]FC binding was evaluated by adding a saturating concentration of unlabelled FC.

[5] = biological target: T2, 14-3-3 proteins / GPIbα (UniProt P07359+P49106); test: Overlay assay of 32P-14-3-3 on blotted platelet proteins; assay type: binding, human; details: 10 μM FC; autoradiography
T2 construct: GST (pGEX-2TK, with protein kinase A site at the junction, 32P-labelled) (N); made in house; host or cells: E. coli (14-3-3 probe); GPIbα endogenous, from boiled human platelet suspension
Description: A: SDS-PAGE profile of platelet proteins. B: immunodecoration of GPIbα with anti-GPIbα ([…]) antidoby. C: overlay assay. Maize plasma membrane proteins (lanes 1, positive control) or platelet proteins (lanes 2) were separated by SDS-PAGE, blotted onto nitrocellulose membrane, incubated with ^32P-14-3-3 in the absence (−FC) or in the presence (+FC) of 10 μM FC and subjected to autoradiography as described in the Materials and Methods.
SDS-PAGE was performed as described by Laemmli (1970), in a Mini Protean apparatus (Bio-Rad). The overlay assay was carried out according to Fullone et al. (1998), with minor modifications. The GST-fused 14-3-3 was labelled with [γ^32P]-ATP on cAMP-dependent protein kinase phosphorylation site present at junction between GST and the cloned protein, ^32P-labelled GF14-6 was used as probe in the overlay experiments. 30 μl of platelet suspension (2.0×10^8/mi) was boiled in Laemmli loading buffer, separated on SDS-PAGE and blotted on nitrocellulose membrane by semidry electroblotting. 20 μg of maize plasma membrane proteins were used as positive control. […] Nitrocellulose membrane was extensively washed with buffer HT and radioactivity detected by autoradiography. […]

[6] = biological target: T3, 14-3-3 proteins / bD15Lp peptide (last 15 amino acid residues of GPIbα) (UniProt P07359+P49106); test: Binding of 32P-labelled 14-3-3 (GF14-6) to resin-bound bD15Lp phosphopeptide; details: 10 μM FC; resin-bound radioactivity; no binding in the absence of FC
T3 construct: GST (pGEX-2TK, with protein kinase A site at the junction, 32P-labelled) (N); made in house; host or cells: E. coli (14-3-3); peptide synthesized by Neosystem
Description: as §1, §2, §3, §4

T2 sequence (P07359 17-652, one chain of several): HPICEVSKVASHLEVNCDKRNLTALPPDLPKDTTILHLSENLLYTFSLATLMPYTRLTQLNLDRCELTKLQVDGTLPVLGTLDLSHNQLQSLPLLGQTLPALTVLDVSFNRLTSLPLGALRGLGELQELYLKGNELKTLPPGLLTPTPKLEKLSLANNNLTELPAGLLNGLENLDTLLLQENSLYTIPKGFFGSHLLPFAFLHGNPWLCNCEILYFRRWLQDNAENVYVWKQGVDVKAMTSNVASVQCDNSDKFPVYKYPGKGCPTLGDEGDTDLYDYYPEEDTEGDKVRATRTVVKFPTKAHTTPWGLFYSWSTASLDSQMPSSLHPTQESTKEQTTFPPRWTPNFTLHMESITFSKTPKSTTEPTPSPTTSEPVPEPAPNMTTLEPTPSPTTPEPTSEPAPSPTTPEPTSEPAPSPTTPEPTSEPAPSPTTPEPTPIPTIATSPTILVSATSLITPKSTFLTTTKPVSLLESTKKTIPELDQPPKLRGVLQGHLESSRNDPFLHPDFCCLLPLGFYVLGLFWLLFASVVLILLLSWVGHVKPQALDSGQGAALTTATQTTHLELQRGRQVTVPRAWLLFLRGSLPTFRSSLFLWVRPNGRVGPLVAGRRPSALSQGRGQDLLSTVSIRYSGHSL

C=CC(C)(C)OC[C@H]1O[C@H](O[C@@H]2C3=C([C@H](C)COC(C)=O)C[C@H](O)[C@]3(C)/C=C3/[C@@H](COC)CC[C@H]3[C@@H](C)[C@H]2O)[C@H](O)[C@@H](OC(C)=O)[C@@H]1O [FC, fusicoccin]
Number of platelets adherent to vWF ([1]; in the presence of 50 μM platelet agonist ADP (+ADP)): significantly increased
Number of platelets adherent to vWF ([1]; resting platelets (−ADP)): significantly increased
Effect of FC on 14-3-3 binding to immobilized bL15Vp peptide [2]: strongly stimulated
FC concentration giving maximum agglutination ([3]; PRP, 37° C.): 40 µM
Platelet agglutination/aggregation induced ([3]; PRP, 37° C.): slight but reproducible agglutination in a dose-dependent manner
Specific [3H]FC binding to platelets [4]: platelets possess specific FC binding activity
Effect of FC on the interaction between 14-3-3 proteins and GPIbα (135 kDa band) [5]: the interaction is increased
Effect of FC on 14-3-3 binding to immobilized bD15Lp peptide [6]: in the presence of the toxin binding is generated

C13H27CONH-Ser-lle-Arg-Tyr-Ser-Gly-His-pSer-Leu (Myristoyl-SIRYSGH[pS′]L) [MPαC, reference compound]
Inhibition of FC-induced platelet aggregation ([3]; 40 μM FC, 0.1 mM MPαC or 0.75 mM RGDS): completely inhibits FC effect

ristocetin [reference compound]
Platelet agglutination/aggregation induced ([3]; PRP, 37° C.): rapid platelet agglutination
